Patent US20230109839A1, “THERAPEUTIC AGENT FOR TAUOPATHIES” (SUMITOMO PHARMA CO., LTD., priority 2020, published 2023)

Biological target: T1, human Nav1.1 (Homo sapiens, UniProt P35498)
T1 construct: host or cells: HEK293
Experiment: Amplification of Nav1.1-derived voltage-gated sodium current (Nav1.1 current), automated patch clamp (Test 1)
Assay type: cell-based
Conditions: HEK293 cell line stably expressing human Nav1.1
Method in brief: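 HEK293 cells stably expressing human Nav1.1, restricted to cells with >500 pA current, were recorded by automated voltage-clamp patch clamp with a ramp voltage stimulus. Compounds were applied in HEPES-buffered extracellular solution with 1% DMSO. Amplification (%) = 100×(peak or AUC after/before compound)−100.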

[1] = Concentration for evaluation 1 μM
[2] = Concentration for evaluation 3 μM
[3] = Concentration for evaluation 50 μM

Structure (SMILES) | Nav1.1 current amplification rate (%) [1] [%] | Nav1.1 current amplification rate (%) [2] [%] | further results
CC1CC=C(c2ccc(=O)n(CC(=O)N3CCc4c(CNC5CCOC5)cccc43)n2)CC1 (centres unmarked) [Example 316] | 81 |  | 
CC1CC=C(c2ccc(=O)n(CC(=O)N3CCc4c(CNC5CCOCC5)cccc43)n2)CC1 (centres unmarked) [Example 317] | 41 |  | 
CC1CC=C(c2ccc(=O)n(CC(=O)N3CCc4c3ccnc4N3CCOCC3)n2)CC1 (centres unmarked) [Example 319] | 134 |  | 
CC1CC=C(c2ccc(=O)n(CC(=O)N3CCc4c(C5CN(C(=O)CO)C5)cccc43)n2)CC1 (centres unmarked) [Example 321] |  | 478 | 
CC1CC=C(c2ccc(=O)n(CC(=O)Nc3cccc(N4CCOCC4)c3F)n2)CC1 (centres unmarked) [Example 322] |  | 115 | 
CC1CC=C(c2ccc(=O)n(CC(=O)Nc3ccc4oc(CN(C)C)nc4c3)n2)CC1 (centres unmarked) [Example 324] |  | 50 | 
Cc1nc2cc(NC(=O)Cn3nc(C4=CCC(C)CC4)ccc3=O)cnc2s1 (centres unmarked) [Example 326] |  | 132 | 
CC1CC=C(c2ccc(=O)n(CC(=O)Nc3ccc4oc(C(C)(C)O)nc4c3)n2)CC1 (centres unmarked) [Example 327] |  | 124 | 
CC1CC=C(c2ccc(=O)n(CC(=O)Nc3cc4nccn4cn3)n2)CC1 (centres unmarked) [Example 328] |  | 58 | 
CC1CC=C(c2ccc(=O)n(CC(=O)Nc3ccn4ncnc4c3)n2)CC1 (centres unmarked) [Example 330] | 191 |  | 
CC1CC=C(c2ccc(=O)n(CC(=O)Nc3ccn4cc(C5CC5)nc4c3)n2)CC1 (centres unmarked) [Example 334] |  | 255 | 
CC1CC=C(c2ccc(=O)n(CC(=O)Nc3ccn4c(C5CC5)cnc4c3)n2)CC1 (centres unmarked) [Example 335] |  | 187 | 
CC1CC=C(c2ccc(=O)n(CC(=O)Nc3ccc4ncnn4c3)n2)CC1 (centres unmarked) [Example 339] | 127 |  | 
Cc1cc2nc(NC(=O)Cn3nc(C4=CCC(C)CC4)ccc3=O)ccn2n1 (centres unmarked) [Example 340] |  |  | Nav1.1 current amplification rate (%) [3]: 41%
CC1CC=C(c2ccc(=O)n(CC(=O)Nc3ccc4nncn4c3)n2)CC1 (centres unmarked) [Example 341] |  |  | Nav1.1 current amplification rate (%) [3]: 202%
CC1CC=C(c2ccc(=O)n(CC(=O)Nc3ccn4nncc4c3)n2)CC1 (centres unmarked) [Example 342] | 109 |  | 
CC1CC=C(c2ccc(=O)n(CC(=O)Nc3ccc4nccn4c3)n2)CC1 (centres unmarked) [Example 343] | 44 |  | 
CC1CC=C(c2ccc(=O)n(CC(=O)Nc3ccc4cncn4c3)n2)CC1 (centres unmarked) [Example 344] | 69 |  | 

The next lines start with results.

Nav1.1 current amplification rate (%) [1] [%] | Nav1.1 current amplification rate (%) [2] [%] | Structure (SMILES) | further results
 | 77 | CC1CC=C(c2ccc(=O)n(CC(=O)N3CCc4cc(C5CN(C6COC6)C5)ccc43)n2)CC1 (centres unmarked) [Example 318] | 
10 |  | CC1CC=C(c2ccc(=O)n(CC(=O)N3CCc4cc(OCC(C)(C)O)ccc43)n2)CC1 (centres unmarked) [Example 320] | 
 | 154 | Cc1cc(NC(=O)Cn2nc(C3=CCC(C)CC3)ccc2=O)cc2ncoc12 (centres unmarked) [Example 323] | 
 | 233 | COCc1nc2cc(NC(=O)Cn3nc(C4=CCC(C)CC4)ccc3=O)ccc2o1 (centres unmarked) [Example 325] | 
 | 100 | Cc1nc2cc(NC(=O)Cn3nc(C4=CCC(C)CC4)ccc3=O)ccn2c1C (centres unmarked) [Example 329] | 
 | 64 | CC1CC=C(c2ccc(=O)n(CC(=O)Nc3ccc4oc(CN5CCOCC5)nc4c3)n2)CC1 (centres unmarked) [Example 331] | 
 | 15 | COC1CN(Cc2nc3cc(NC(=O)Cn4nc(C5=CCC(C)CC5)ccc4=O)ccc3o2)C1 (centres unmarked) [Example 332] | 
 | 25 | CC1CC=C(c2ccc(=O)n(CC(=O)Nc3ccc4oc(CN5CCC5)nc4c3)n2)CC1 (centres unmarked) [Example 333] | 
68 |  | CC1CC=C(c2ccc(=O)n(CC(=O)Nc3ccc4c(cnn4C)c3)n2)CC1 (centres unmarked) [Example 336] | 
52 |  | CC1CC=C(c2ccc(=O)n(CC(=O)Nc3cnc4nccn4c3)n2)CC1 (centres unmarked) [Example 337] | 
241 |  | CC1CC=C(c2ccc(=O)n(CC(=O)Nc3ccn4cncc4c3)n2)CC1 (centres unmarked) [Example 338] | 
